Source: BigSolDB 2.1

CCOC(=O)CCC(=O)O[C@H]1[C@H](O[C@@H]2[C@@H](C)[C@H](O[C@H]3C[C@@](C)(OC)[C@@H](O)[C@H](C)O3)[C@@H](C)C(=O)O[C@H](CC)[C@@](C)(O)[C@H](O)[C@@H](C)C(=O)[C@H](C)C[C@@]2(C)O)O[C@H](C)C[C@@H]1N(C)C
solubility (mole fraction)
Conditions	288.15 K	293.15 K	298.15 K	303.15 K	308.15 K	313.15 K	318.15 K	323.15 K
in THF	0.036	0.0416	0.0491	0.058	0.0684	0.081	0.0977	0.114
in acetone	0.0138	0.0175	0.0219	0.0268	0.0347	0.0425	0.0527	0.0614
in acetonitrile	0.0019	0.00252	0.00332	0.00397	0.00504	0.00703	0.00906	0.0114
in ethanol	0.00762	0.00966	0.0128	0.017	0.0242	0.0323	0.0414	0.0518
in isopropanol	0.00814	0.0106	0.0141	0.0187	0.0249	0.0342	0.0459	0.0556
in n-hexane	9.26e-05	0.000129	0.000158	0.000213	0.000286	0.000371	0.000562	0.000698
